Source: patent US20040224958A1, “Pyridopyrimidinone derivatives for treatment of neurodegenerative disease” (priority 2000, published 2004)

Experiments:
cdk4/D = cdk4/D (Homo sapiens, UniProt P11802); assay: Cyclin-Dependent Kinase 4 (cdk4) Assay; format: biochemical; conditions: read-out: cdk4/D IC50
Cdk5/p25 = Cdk5/p25 (Homo sapiens, UniProt Q00535); assay: Cyclin-Dependent Kinase 5 High Throughput Screening (cdk5-HTS) Assay; format: biochemical; conditions: high throughput screen
In short: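 IC50 determined from 33P incorporation into GST-RbCOOH captured on glutathione plates and read by scintillation counting. Reaction: 1.0 μg/mL Cdk5/p25, 20 μM [γ33P]ATP, pH 7.4 Tris buffer with MgCl2 and DTT, 30 min at room temperature, stopped with EDTA.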

cdk2/cyclinE = cdk2/cyclinE (Homo sapiens, UniProt P24941); assay: Cyclin-Dependent Kinase Assay cdk2/cyclinE; conditions: cdk2/E IC50
cdk2/cyclinA = cdk2/cyclinA (Homo sapiens, UniProt P24941); assay: Cyclin-Dependent Kinase Assay cdk2/cyclinA; conditions: cdk2/A IC50
cdc2/cyclinB = cdc2/cyclinB (Homo sapiens, UniProt P06493); assay: Cyclin-Dependent Kinase Assay cdc2/cyclinB
Chain of cdc2/cyclinB (P06493 whole entry): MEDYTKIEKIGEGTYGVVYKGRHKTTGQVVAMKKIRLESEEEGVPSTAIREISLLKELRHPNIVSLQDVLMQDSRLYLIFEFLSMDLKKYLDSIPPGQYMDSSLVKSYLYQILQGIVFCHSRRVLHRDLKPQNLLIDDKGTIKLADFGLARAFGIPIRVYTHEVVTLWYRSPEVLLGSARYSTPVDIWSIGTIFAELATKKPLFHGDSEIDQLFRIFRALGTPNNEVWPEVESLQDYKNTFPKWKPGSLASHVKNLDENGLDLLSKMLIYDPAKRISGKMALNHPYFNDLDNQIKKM
Chain of cdc2/cyclinB (P14635 whole entry, further chain): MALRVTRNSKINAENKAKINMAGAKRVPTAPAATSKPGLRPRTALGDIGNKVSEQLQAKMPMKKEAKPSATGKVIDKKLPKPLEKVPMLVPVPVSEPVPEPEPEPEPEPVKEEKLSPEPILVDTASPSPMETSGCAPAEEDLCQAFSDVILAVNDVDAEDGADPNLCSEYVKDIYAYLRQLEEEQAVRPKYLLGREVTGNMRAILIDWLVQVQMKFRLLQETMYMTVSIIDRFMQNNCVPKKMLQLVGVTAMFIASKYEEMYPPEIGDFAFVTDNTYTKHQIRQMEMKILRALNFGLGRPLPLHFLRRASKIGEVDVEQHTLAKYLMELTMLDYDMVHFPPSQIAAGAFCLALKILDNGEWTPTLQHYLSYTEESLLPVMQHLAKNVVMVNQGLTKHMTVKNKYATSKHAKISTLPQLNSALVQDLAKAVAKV
Method: Cyclin-Dependent Kinase Assays (cdk2/cyclinE, cdk2/cyclinA, cdc2/cyclinB)
All components except the ATP were added to the wells, and the plate was placed on a plate mixer for 2 minutes. The reaction was begun by addition of [^32P]ATP, and the plate was incubated at 25° C. for 15 minutes. The reaction was terminated by addition of 0.1 mL of 20% TCA. The plate was kept at 4° C. for at least 1 hour to allow the substrate to precipitate. The wells were then washed five times with 0.2 mL of 10% TCA and ^32p incorporation determined with a beta plate counter (Wallac Inc., Gaithersburg, Md.).

Chain of cdk4/D (P11802 whole entry): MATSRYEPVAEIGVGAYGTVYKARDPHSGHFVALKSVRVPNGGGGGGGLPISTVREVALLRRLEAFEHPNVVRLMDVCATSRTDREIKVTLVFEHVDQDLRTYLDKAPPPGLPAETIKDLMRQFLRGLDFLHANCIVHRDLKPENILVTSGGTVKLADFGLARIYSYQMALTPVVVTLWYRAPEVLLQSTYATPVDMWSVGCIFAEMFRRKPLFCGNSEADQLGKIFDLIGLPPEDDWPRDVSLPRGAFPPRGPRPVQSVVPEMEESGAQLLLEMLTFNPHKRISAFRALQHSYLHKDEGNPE
Chain of cdk4/D (P24385 whole entry, further chain): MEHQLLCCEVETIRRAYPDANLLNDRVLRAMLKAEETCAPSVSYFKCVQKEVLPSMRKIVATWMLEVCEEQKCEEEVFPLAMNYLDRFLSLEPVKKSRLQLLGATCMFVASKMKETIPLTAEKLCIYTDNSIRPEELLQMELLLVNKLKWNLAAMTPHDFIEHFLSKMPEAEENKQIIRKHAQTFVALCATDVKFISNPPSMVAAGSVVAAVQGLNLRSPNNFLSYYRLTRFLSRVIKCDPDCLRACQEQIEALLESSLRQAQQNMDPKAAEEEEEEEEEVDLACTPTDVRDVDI

In the case of `CCC(CC)n1c(=O)ccc2cnc(Nc3ccc(O)c(Cl)c3)nc21` [Example 496, 2-(3-Chloro-4-hydroxy-phenylamino)-8-(1-ethyl-propyl)-8H-pyrido[2,3-d]pyrimidin-7-one], the IC50 (cdk4/D) is reported as 280 nM, the IC50 (Cdk5/p25) is reported as 17.5 nM and the IC50 (cdk2/cyclinE) is reported as 31 nM. For the same molecule, the IC50 (cdk2/cyclinA) was 89.5 nM and the IC50 (cdc2/cyclinB) was 24 nM.
`CCC(CC)n1c(=O)ccc2cnc(Nc3cc(Cl)c(O)c(Cl)c3)nc21` [Example 497, 2-(3,5-Dichloro-4-hydroxy-phenylamino)-8-(1-ethyl-propyl)-8H-pyrido[2,3-d]pyrimidin-7-one] showed an IC50 (cdk4/D) of 480 nM, an IC50 (Cdk5/p25) of 55.5 nM and an IC50 (cdk2/cyclinE) of 80 nM. It also gave an IC50 (cdk2/cyclinA) of 160 nM and an IC50 (cdc2/cyclinB) of 46.5 nM.
`CCC(CC)n1c(=O)ccc2cnc(Nc3cccc([N+](=O)[O-])c3)nc21` [Example 498, 8-(1-Ethyl-propyl)-2-(3-nitro-phenylamino)-8H-pyrido[2,3-d]pyrimidin-7-one] was tested, and the IC50 (cdk4/D) was 170 nM, the IC50 (Cdk5/p25) was 68 nM and the IC50 (cdk2/cyclinE) was 47 nM. The IC50 (cdk2/cyclinA) was 200 nM and the IC50 (cdc2/cyclinB) was 49.5 nM.
`CCC(CC)n1c(=O)ccc2cnc(Nc3ccc(OC)c(OC)c3)nc21` [Example 499, 2-(3,4-Dimethoxy-phenylamino)-8-(1-ethyl-propyl)-8H-pyrido[2,3-d]pyrimidin-7-one] gave an IC50 (cdk4/D) of 192 nM, an IC50 (Cdk5/p25) of 12.5 nM and an IC50 (cdk2/cyclinE) of 46.3 nM. It also gave an IC50 (cdk2/cyclinA) of 115 nM and an IC50 (cdc2/cyclinB) of 46 nM.
Work on `CCC(CC)n1c(=O)ccc2cnc(Nc3ccc(Cl)c(C)c3)nc21` [Example 500, 2-(4-Chloro-3-methyl-phenylamino)-8-(1-ethyl-propyl)-8H-pyrido[2,3-d]pyrimidin-7-one] yielded an IC50 (cdk4/D) of 98 nM, an IC50 (Cdk5/p25) of 16 nM and an IC50 (cdk2/cyclinE) of 74 nM. The IC50 (cdk2/cyclinA) was 340 nM and the IC50 (cdc2/cyclinB) was 110 nM.
`CCC(CC)n1c(=O)ccc2cnc(Nc3ccc(F)c(C(F)(F)F)c3)nc21` [Example 502, 8-(1-Ethyl-propyl)-2-(4-fluoro-3-trifluoromethyl-phenylamino)-8H-pyrido[2,3-d]pyrimidin-7-one] showed an IC50 (cdk4/D) of 350 nM, an IC50 (Cdk5/p25) of 21 nM and an IC50 (cdk2/cyclinE) of 68 nM. It also gave an IC50 (cdk2/cyclinA) of 360 nM and an IC50 (cdc2/cyclinB) of 100 nM.
`CCC(CC)n1c(=O)ccc2cnc(Nc3ccc(OC)c(F)c3)nc21` [Example 505, 8-(1-Ethyl-propyl)-2-(3-fluoro-4-methoxy-phenylamino)-8H-pyrido[2,3-d]pyrimidin-7-one] gave an IC50 (cdk4/D) of 34 nM, an IC50 (Cdk5/p25) of 14 nM and an IC50 (cdk2/cyclinE) of 67 nM. For the same molecule, the IC50 (cdk2/cyclinA) was 220 nM and the IC50 (cdc2/cyclinB) was 73 nM.
In the case of `CCC(CC)n1c(=O)ccc2cnc(Nc3ccc(C#N)c(NC(C)=O)c3)nc21` [Example 506, N-{2-Cyano-5-[8-(-ethyl-propyl)-7-oxo-7,8-dihydro-pyrido[2,3-d]pyrimidin-2-ylamino]-phenyl}-acetamide], the IC50 (cdk4/D) is reported as 36 nM, the IC50 (Cdk5/p25) is reported as 44 nM and the IC50 (cdk2/cyclinE) is reported as 93 nM. It also gave an IC50 (cdk2/cyclinA) of 400 nM and an IC50 (cdc2/cyclinB) of 110 nM.
With `CCC(CC)n1c(=O)ccc2cnc(Nc3ccc(Br)c(Cl)c3)nc21` [Example 507, 2-(4-Bromo-3-chloro-phenylamino)-8-(1-ethyl-propyl)-8H-pyrido[2,3-d]pyrimidin-7-one] the IC50 (cdk4/D) was 150 nM, the IC50 (Cdk5/p25) was 64 nM and the IC50 (cdk2/cyclinE) was 310 nM. For the same molecule, the IC50 (cdk2/cyclinA) was 1300 nM and the IC50 (cdc2/cyclinB) was 330 nM.
`CCC(CC)n1c(=O)ccc2cnc(Nc3cc(OC)cc(C(F)(F)F)c3)nc21` [Example 508, 8-(1-Ethyl-propyl)-2-(3-methoxy-5-trifluoromethyl-phenylamino)-8H-pyrido[2,3-d]pyrimidin-7-one] showed an IC50 (cdk4/D) of 140 nM, an IC50 (Cdk5/p25) of 70 nM and an IC50 (cdk2/cyclinE) of 280 nM. For the same molecule, the IC50 (cdk2/cyclinA) was 2100 nM and the IC50 (cdc2/cyclinB) was 230 nM.
`CCC(CC)n1c(=O)ccc2cnc(Nc3ccc(F)c(F)c3)nc21` [Example 509, 2-(3,4-Difluoro-phenylamino)-8-(I-ethyl-propyl)-8H-pyrido[2,3-d]pyrimidin-7-one] gave an IC50 (cdk4/D) of 98 nM, an IC50 (Cdk5/p25) of 26 nM and an IC50 (cdk2/cyclinE) of 64 nM. It also gave an IC50 (cdk2/cyclinA) of 240 nM and an IC50 (cdc2/cyclinB) of 190 nM.
Molecule `CCC(CC)n1c(=O)ccc2cnc(Nc3cc(F)cc(F)c3)nc21` [Example 510, 2-(3,5-Difluoro-phenylamino)-8-(1-ethyl-propyl)-8H-pyrido[2,3-d]pyrimidin-7-one] has an IC50 (cdk4/D) of 270 nM, an IC50 (Cdk5/p25) of 120 nM and an IC50 (cdk2/cyclinE) of 210 nM. The IC50 (cdk2/cyclinA) was 310 nM and the IC50 (cdc2/cyclinB) was 180 nM.
With `CCC(CC)n1c(=O)ccc2cnc(Nc3ccc(Cl)c(Cl)c3)nc21` [Example 511, 2-(3,4-Dichloro-phenylamino)-8-(1-ethyl-propyl)-8H-pyrido[2,3-d]pyrimidin-7-one] the IC50 (cdk4/D) was 220 nM, the IC50 (Cdk5/p25) was 50 nM and the IC50 (cdk2/cyclinE) was 160 nM. It also gave an IC50 (cdk2/cyclinA) of 290 nM and an IC50 (cdc2/cyclinB) of 140 nM.
Work on `CCC(CC)n1c(=O)ccc2cnc(Nc3cccc(O)c3)nc21` [Example 512, 8-(1-Ethyl-propyl)-2-(3-hydroxy-phenylamino)-8H-pyrido[2,3-d]pyrimidin-7-one] yielded an IC50 (cdk4/D) of 2200 nM, an IC50 (Cdk5/p25) of 83 nM and an IC50 (cdk2/cyclinE) of 56 nM. It also gave an IC50 (cdk2/cyclinA) of 120 nM and an IC50 (cdc2/cyclinB) of 39 nM.
